Patent publication US11479553B2, “5-5 fused rings as C5a inhibitors” (CHEMOCENTRYX, INC., priority 2017, dated 2022)

target: C5aR (Homo sapiens (Human), UniProt P21730); assay: Chemotaxis assay (inhibition of C5aR mediated migration toward C5a); type: cell-based; settings: inhibition in the chemotaxis assay (Example 14 B.3); U937 or neutrophil cells, C5a as chemoattractant
Procedure: U937 cells are a monocytic cell line which express C5aR, and are available from ATCC (VA). These cells were cultured as a suspension in RPMI-1640 medium supplemented with 2 mM L-glutamine, 1.5 g/L sodium bicarbonate, 4.5 g/L glucose, 10 mM HEPES, 1 mM sodium pyruvate, and 10% FBS. Cells were grown under 5% CO2/95% air, 100% humidity at 37° C. and subcultured twice weekly at 1:6 (cells were cultured at a density range of 1×10^5 to 2×10^6 cells/mL) and harvested at 1×10^6 cells/mL. Prior to assay, cells are treated overnight with 0.5 mM of cyclic AMP (Sigma, OH) and washed once prior to use. cAMP treated U937 cells can be used in C5aR ligand binding and functional assays.
Optionally, human or murine neutrophils can be used to assay for compound activity. Neutrophils may be isolated from fresh human blood using density separation and centrifigation. Briefly, whole blood is incubated with equal parts 3% dextran and allowed to separate for 45 minutes. After separation, the top layer is layered on top of 15 mls of Ficoll (15 mls of Ficoll for every 30 mls of blood suspension) and centrifuged for 30 minutes at 400×g with no brake. The pellet at the bottom of the tube is then isolated and resuspended into PharmLyse RBC Lysis Buffer (BD Biosciences, San Jose, Calif.) after which the sample is again centrifuged for 10 minutes at 400×g with brake. The remaining cell pellet is resuspended as appropriate and consists of isolated neutrophils.
Optionally, compounds may be further assayed for their ability to inhibit chemotaxis in cells. Chemotaxis assays are performed using 5 μm pore polycarbonate, polyvinylpyrrolidone-coated filters in 96-well chemotaxis chambers (Neuroprobe; Gaithersburg, Md.) using chemotaxis buffer (Hank's balanced salt solution (HBSS) and 1% FBS). C5aR ligands (i.e., C5a, R&D Systems; Minneapolis, Minn.) are use to evaluate compound mediated inhibition of C5aR mediated migration. Other chemokines (i.e., SDF-1α; R&D Systems; Minneapolis, Minn.) are used as specificity controls. The lower chamber is loaded with 29 μl of chemokine (i.e., 0.03 nM C5a) and varying amounts of compound; the top chamber contains 100,000 U937 or neutrophil cells in 20 μl. The chambers are incubated 1.5 hours at 37° C., and the number of cells in the lower chamber quantified either by direct cell counts in five high powered fields per well or by the CyQuant assay (Molecular Probes), a fluorescent dye method that measures nucleic acid content and microscopic observation.

Chain of C5aR (P21730 whole entry): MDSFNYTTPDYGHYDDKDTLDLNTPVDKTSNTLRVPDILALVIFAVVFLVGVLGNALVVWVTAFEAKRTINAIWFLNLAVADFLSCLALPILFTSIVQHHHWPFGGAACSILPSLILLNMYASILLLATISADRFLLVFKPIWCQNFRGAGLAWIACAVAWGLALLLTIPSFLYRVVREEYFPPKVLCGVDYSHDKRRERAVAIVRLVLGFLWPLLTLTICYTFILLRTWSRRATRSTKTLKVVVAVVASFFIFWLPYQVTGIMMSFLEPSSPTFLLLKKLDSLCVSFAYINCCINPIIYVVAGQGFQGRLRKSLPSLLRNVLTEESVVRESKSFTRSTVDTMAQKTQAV

| IC50 [µM] | Compound |
| --- | --- |
| 0.05 to 0.5 | CCc1cccc(CC)c1-n1nc2c(c1-c1ccc(F)c3[nH]ccc13)CN(CC(C)(C)C)C2(C)C [Compound 1.009] |
| < 0.005 | CCc1cccc(CC)c1-n1nc2c(c1-c1ccc(F)c3[nH]ccc13)CN(CC(C)(C)C(F)(F)F)C2(C)C [Compound 1.032] |
| 0.005 to 0.05 | CCc1cccc(CC)c1-n1nc2c(c1-c1ccc(F)c3[nH]ccc13)CN(C(=O)C(C)(C)C(F)(F)F)C2(C)C [Compound 1.033] |
| ≥ 0.5 | Cc1cccc(C)c1-n1nc2c(c1-c1ccc3[nH]ccc3c1)CN(CC(C)(C)C)C2 [Compound 1.051] |
